Reference: ChEMBL document CHEMBL4145573, “Antinociceptive Diterpenoids from the Leaves and Twigs of Rhododendron decorum” (2018)
Calls of active or inactive are those of the source. The rule behind the calls is not given here.

Experiments:
Mus musculus [1] = test: Antinociceptive activity in Kunming mouse assessed as inhibition of acetic acid-induced writhes at 0.8 mg/kg, ip pretreated for 15 mins followed by acetic acid challenge measured for 30 mins relative to control; type: functional
Mus musculus [2] = test: Antinociceptive activity in Kunming mouse assessed as inhibition of acetic acid-induced writhes at 0.08 mg/kg, ip pretreated for 15 mins followed by acetic acid challenge measured for 30 mins relative to control; type: functional
Mus musculus [3] = test: Antinociceptive activity in Kunming mouse assessed as inhibition of acetic acid-induced writhes at 10 mg/kg, ip pretreated for 15 mins followed by acetic acid challenge measured for 30 mins; type: functional, organism-based

SMILES: CN1CC[C@]23c4c5ccc(O)c4O[C@H]2[C@@H](O)C=C[C@H]3[C@H]1C5 [MORPHINE]
- inhibition in vivo at 0.8 mg/kg (Mus musculus [1]): 86%

SMILES: CC1(C)[C@H]2O[C@H]2[C@H]2[C@](C)(O)[C@@H]3CC[C@]4(O)C[C@@]3(C[C@@H](O)[C@@]21O)C[C@@]4(C)O
- inhibition in vivo at 0.08 mg/kg (Mus musculus [2]): 78%

SMILES: C=C1C[C@]23C[C@H]1CC[C@H]2C(=C)[C@@H]1C[C@H](O[C@@H]2O[C@H](CO)[C@@H](O)[C@H](O)[C@H]2O)C(C)(C)[C@@]1(O)[C@H](O)C3
- inhibition (Mus musculus [3]): Active

SMILES: C=C1[C@@H]2[C@@H](O)[C@H](O)C(C)(C)[C@@]2(O)[C@H](O)C[C@@]23C[C@@](O)(CC[C@@H]12)[C@](C)(O)C3
- inhibition (Mus musculus [3]): Active

SMILES: C=C1[C@H]2C[C@@H](O)C(C)(C)[C@H](O)[C@@H]2C[C@@]23C[C@@](O)(CC[C@@H]12)[C@](C)(O)C3
- inhibition (Mus musculus [3]): Active

SMILES: C=C1[C@H]2CC[C@]3(O)C[C@@]2(C[C@@H](O)[C@@]2(O)[C@H]1C[C@H](O)C2(C)C)C[C@@]3(C)O
- inhibition (Mus musculus [3]): Active

SMILES: CC1(C)[C@@H](O)[C@H](O)[C@H]2[C@](C)(O)[C@@H]3CC[C@]4(O)C[C@@]3(C[C@@H](O)[C@@]21O)C[C@@]4(C)O
- inhibition in vivo at 0.8 mg/kg (Mus musculus [1]): 68%
